Here are results for 19 compounds from patent US10287301B2 (Achillion Pharmaceuticals, Inc., priority 2015, dated 2019).

A value given as a limit tells only on which side of the number the result lay.

One assay deals with Human Factor D (Homo sapiens (Human), UniProt P00746). Description: Human Factor D Assay. Type of assay: biochemical.
Chain of Human Factor D (P00746 26-253): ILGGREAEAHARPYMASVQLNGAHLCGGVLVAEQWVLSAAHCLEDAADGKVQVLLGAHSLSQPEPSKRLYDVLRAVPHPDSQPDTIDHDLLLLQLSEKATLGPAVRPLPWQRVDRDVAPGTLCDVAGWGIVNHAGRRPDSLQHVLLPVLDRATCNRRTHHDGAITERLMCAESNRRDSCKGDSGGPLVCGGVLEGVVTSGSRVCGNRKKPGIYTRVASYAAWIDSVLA
Conditions: not given
In short, it runs like this:
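First, compound at various concentrations is mixed with 80 nM (final) human serum Factor D in 50 mM Tris, 1M NaCl, pH 7.5 for 5 min at room temperature.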
`CC(=O)c1nn(CC(=O)N2CCC[C@H]2C(=O)Nc2cccc(C)n2)c2ccc(-c3ccc4c(c3)CCC4)cc12` [Compound 572, (S)-1-(2-(3-Acetyl-5-(2,3-dihydro-1H-inden-5-yl)-1H-indazol-1-yl)acetyl)-N-(6-methylpyridin-2-yl)pyrrolidine-2-carboxamide] came in with an IC50 of 1000 to 10000 nM.

The assay is the same for the next values; noted with them: Human Factor D, Table 3; read-out: IC50.
`CC(=O)c1nn(CC(=O)N2C[C@H](F)C[C@H]2C(=O)Nc2cccc(OC(F)(F)F)c2F)c2ccc(-c3cnc(N)nc3)cc12` [Compound 563, (2S,4R)-1-(2-(3-Acetyl-5-(2-aminopyrimidin-5-yl)-1H-indazol-1-yl)acetyl)-4-fluoro-N-(2-fluoro-3-(trifluoromethoxy)phenyl)pyrrolidine-2-carboxamide]: the IC50 was below 1000 nM.

`CCc1ncc(-c2ccc3c(c2)c(C(C)=O)nn3CC(=O)N2C[C@H](F)C[C@H]2C(=O)Nc2cccc(Br)n2)cn1` [Compound 566, (2S,4R)-1-(2-(3-Acetyl-5-(2-ethylpyrimidin-5-yl)-1H-indazol-1-yl)acetyl)-N-(6-bromopyridin-2-yl)-4-fluoropyrrolidine-2-carboxamide]: the IC50 was below 1000 nM.

Turning to `CC(=O)c1nn(CC(=O)N2C[C@H](F)C[C@H]2C(=O)Nc2cccc(Br)n2)c2ccc(-c3cnc(C(C)C)nc3)cc12` [Compound 567, (2S,4R)-1-(2-(3-Acetyl-5-(2-isopropylpyrimidin-5-yl)-1H-indazol-1-yl)acetyl)-N-(6-bromopyridin-2-yl)-4-fluoropyrrolidine-2-carboxamide], the IC50 was below 1000 nM.

As to `CC(=O)c1nn(CC(=O)N2C[C@H](F)C[C@H]2C(=O)NC[C@@H]2CCN(C)C2)c2ccc(-c3cnc(C)nc3)cc12` [Compound 568, (2S,4R)-1-(2-(3-Acetyl-5-(2-methylpyrimidin-5-yl)-1H-indazol-1-yl)acetyl)-4-fluoro-N—(((S)-1-methylpyrrolidin-3-yl)methyl)pyrrolidine-2-carboxamide], the 50% inhibitory concentration (IC50) is above 10000 nM.

Turning to `CC(=O)c1nn(CC(=O)N2C[C@H](F)C[C@H]2C(=O)NC[C@H]2CCN(C)C2)c2ccc(-c3cnc(C)nc3)cc12` [Compound 569, (2S,4R)-1-(2-(3-acetyl-5-(2-methylpyrimidin-5-yl)-1H-indazol-1-yl)acetyl)-4-fluoro-N—(((R)-1-methylpyrrolidin-3-yl)methyl)pyrrolidine-2-carboxamide], the IC50 is above 10000 nM.

`CC(=O)c1nn(CC(=O)N2CC[C@H]2C(=O)Nc2cccc(C)n2)c2ccc(-c3ccc4c(c3)CCC4)cc12` [Compound 573, (S)-1-(2-(3-Acetyl-5-(2,3-dihydro-1H-inden-5-yl)-1H-indazol-1-yl)acetyl)-N-(6-methylpyridin-2-yl)azetidine-2-carboxamide]: the IC50 is above 10000 nM.

Take `CC(=O)c1nn(CC(=O)N2[C@@H]3C[C@@H]3C[C@H]2C(=O)Nc2nc(Br)ccc2CO)c2ccc(-c3cnc(C)nc3)cc12` [Compound 574, (1R,3S,5R)-2-(2-(3-acetyl-5-(2-methylpyrimidin-5-yl)-1H-indazol-1-yl)acetyl)-N-(6-bromo-3-(hydroxymethyl)pyridin-2-yl)-2-azabicyclo[3.1.0] hexane-3-carboxamide]: the IC50 was below 1000 nM.

With `CC(=O)c1nn(CC(=O)N2[C@@H]3C[C@@H]3C[C@H]2C(=O)NC/C(F)=C\c2ccccc2)c2ccc(-c3cnc(C)nc3)cc12` [Compound 575, (1R,3S,5R)-2-(2-(3-Acetyl-5-(2-methylpyrimidin-5-yl)-1H-indazol-1-yl)acetyl)-N-((E)-2-fluoro-3-phenylallyl)-2-azabicyclo[3.1.0]hexane-3-carboxamide], the IC50 was below 1000 nM.

Take `CC(=O)c1nn(CC(=O)N2C[C@H](F)C[C@H]2C(=O)Nc2cccc(C3CC3)n2)c2ccc(-c3cnc(C)nc3)cc12` [Compound 576, (2S,4R)-1-(2-(3-Acetyl-5-(2-methylpyrimidin-5-yl)-1H-indazol-1-yl)acetyl)-N-(6-cyclopropylpyridin-2-yl)-4-fluoropyrrolidine-2-carboxamide]: the IC50 is below 1000 nM.

As for `COc1cccc(NC(=O)[C@@H]2C[C@@H](F)CN2C(=O)Cn2nc(C(C)=O)c3cc(-c4cnc(C)nc4)ccc32)n1` [Compound 580, (2S,4R)-1-(2-(3-Acetyl-5-(2-methylpyrimidin-5-yl)-1H-indazol-1-yl)acetyl)-4-fluoro-N-(6-methoxypyridin-2-yl)pyrrolidine-2-carboxamide], the IC50 was below 1000 nM.

With `CC(=O)c1nn(CC(=O)N2C[C@H](F)C[C@H]2C(=O)Nc2cncc(C(F)(F)F)n2)c2ccc(-c3cnc(C)nc3)cc12` [Compound 581, (2S,4R)-1-(2-(3-Acetyl-5-(2-methylpyrimidin-5-yl)-1H-indazol-1-yl)acetyl)-4-fluoro-N-(6-(trifluoromethyl)pyrazin-2-yl)pyrrolidine-2-carboxamide], the IC50 is below 1000 nM.

In the case of `CC(=O)c1nn(CC(=O)N2C[C@H](F)C[C@H]2C(=O)Nc2cccc(OC(F)F)n2)c2ccc(-c3cnc(C)nc3)cc12` [Compound 582, (2S,4R)-1-(2-(3-Acetyl-5-(2-methylpyrimidin-5-yl)-1H-indazol-1-yl)acetyl)-N-(6-(difluoromethoxy)pyridin-2-yl)-4-fluoropyrrolidine-2-carboxamide], the IC50 is below 1000 nM.

Take `CC(=O)c1nn(CC(=O)N2C[C@H](F)C[C@H]2C(=O)Nc2cccc(Br)n2)c2ccc(-c3cnc(F)nc3)cc12` [Compound 583, (2S,4R)-1-(2-(3-Acetyl-5-(2-fluoropyrimidin-5-yl)-1H-indazol-1-yl)acetyl)-N-(6-bromopyridin-2-yl)-4-fluoropyrrolidine-2-carboxamide]: the IC50 was below 1000 nM.

With `CC(=O)c1cccc(NC(=O)[C@@H]2C[C@@H](F)CN2C(=O)Cn2nc(C(C)=O)c3cc(-c4cnc(C)nc4)ccc32)n1` [Compound 584, (2S,4R)-1-(2-(3-Acetyl-5-(2-methylpyrimidin-5-yl)-1H-indazol-1-yl)acetyl)-N-(6-acetylpyridin-2-yl)-4-fluoropyrrolidine-2-carboxamide], the IC50 is below 1000 nM.

Consider `CC(=O)c1nn(CC(=O)N2CCC[C@H]2C(=O)Nc2cccc(C)n2)c2ccc(-c3ccc4ccccc4c3)cc12` [Compound 585, (S)-1-(2-(3-Acetyl-5-(naphthalen-2-yl)-1H-indazol-1-yl)acetyl)-N-(6-methylpyridin-2-yl)pyrrolidine-2-carboxamide], for which the IC50 is above 10000 nM.

Take `CC(=O)c1nn(CC(=O)N2CC[C@H]2C(=O)Nc2cccc(C)n2)c2ccc(-c3ccc4ccccc4c3)cc12` [Compound 587, (S)-1-(2-(3-Acetyl-5-(naphthalen-2-yl)-1H-indazol-1-yl)acetyl)-N-(6-methylpyridin-2-yl)azetidine-2-carboxamide]: the IC50 was above 10000 nM.

For the compound `CC(=O)c1nn(CC(=O)N2CC[C@H]2C(=O)Nc2cccc(C)n2)c2ccc(-c3ccc(C)nc3)cc12` [Compound 588, (S)-1-(2-(3-Acetyl-5-(6-methylpyridin-3-yl)-1H-indazol-1-yl)acetyl)-N-(6-methylpyridin-2-yl)azetidine-2-carboxamide], the IC50 was above 10000 nM.

With `CC(=O)c1nn(CC(=O)N2CCC[C@H]2C(=O)Nc2cccc(C)n2)c2ccc(-c3ccc4cccnc4c3)cc12` [Compound 589, (S)-1-(2-(3-Acetyl-5-(quinolin-7-yl)-1H-indazol-1-yl)acetyl)-N-(6-methylpyridin-2-yl)pyrrolidine-2-carboxamide], the IC50 was below 1000 nM.

For orientation: IC50 means the concentration that inhibits the measured activity by half.
